Measured values from patent US10696623B2, “Phenolic acid derivative compound and use thereof” (DAEBONG LS, LTD, priority 2015, dated 2020).

Assay: DPPH radical scavenging activity (antioxidant effect)
Format: biochemical
Conditions: 0.2 mM DPPH in methanol, 10 min at room temperature, absorbance 517 nm; compared with ascorbic acid (FIG. 1)
Procedure: The 1,1-diphenyl-2-picrylhydrazyl (DPPH) radical scavenging activities of the phenolic acid derivative compounds prepared in Examples 1-5 were measured to evaluate the antioxidant activities of the compounds against free radicals. Ascorbic acid was used as a positive control.
1,1-Diphenyl-2-picrylhydrazyl (DPPH) radical was purchased from Sigma Chemical Co. (USA) and L-ascorbic acid purchased from Sigma (USA) were used for testing.
100 μl of a 0.2 mM DPPH solution in methanol and 100 μl of each of the compounds at different concentrations were prepared in a 96-well plate. After the reaction was allowed to proceed at room temperature for 10 min, the absorbance of each sample was measured at 517 nm.

CCOC(=O)[C@H](Cc1ccccc1)NC(=O)c1cc(O)c(O)c(O)c1 [Example 1, (S)-ethyl-3-phenyl-2-(3,4,5-trihydroxybenzamido)propanoate]
DPPH radical scavenging activity (antioxidant activity): high activity compared to the control ascorbic acid
